Measurements from US11266645B2, “Methods for treating lymphoma” (Alexion Pharmaceuticals, Inc., priority 2018, dated 2022).
Read-outs that look alike come from different tables or passages of the source.

How the values were obtained:
[1] = Food and proton pump inhibitor crossover PK study in healthy subjects; assay type: in vivo, human; conditions: 30 mg oral; for Cmax / AUC(0-inf) / half-life / Tmax: human; for Cmax / AUC(0-inf): po, 30 mg; for AUC(0-inf): read-out: AUC0−inf Mean; for half-life: read-out: T1/2 Mean (converted); for Tmax: read-out: Tmax Median
Protocol: In an open-label, randomized, 3-period crossover study, healthy subjects received 30 mg cerdulatinib orally. The 3-period treatments were fasted, high-fat diet, and proton pump inhibitor (PPI) esomaprazole, with 14-day washout between treatments. Blood samples were collected up to 72 hours after cerdulatinib treatment. PK endpoints were area under the curve (AUC), maximum concentration (Cmax), Time to Cmax (Tmax), and half-live (T1/2).

[2] = test system: PMA-mediated B cell pERK Y204; test: PMA-mediated B cell pERK Y204; assay type: cell-based, human; conditions: patient samples
Protocol: (§1) The potency and selectivity for target inhibition following oral dosing in patients using a variety of whole blood assays was measured.

[3] = test system: JAK2-dependent STAT5 phosphorylation; test: Whole blood GM-CSF stimulation, STAT5 phosphorylation; assay type: cell-based, human; conditions: patient samples
Protocol: For PD assessments, serial blood samples were drawn into lithium-heparin vacutainer tubes on Day 1 prior to dosing and again at 0.5, 1, 2, and 4 hours post-dose; on Day 8 at pre-dose and 2 hours post-dose; and Day 28 prior to dosing. Multiple assays were performed using the Day 1 and Day 8 PD samples. SYK-mediated BCR signaling in whole blood was measured prior to and post-dosing by stimulating 100 μL whole blood with 2 μL of anti-human IgD (IgG fraction) and 10 μg anti-human IgM for 10 minutes at 37° C., measuring the induction of pSYK Y525/526, pAKT S473, and pERK Y204. […] With blood samples from the CLL patients only, tumor cell surface expression of CD5, CD69, CD86, and CXCR4 pre-dose on days 1 and 28 were monitored. […] For each assay, data were collected using an LSR II instrument (BD Bioscience, San Jose, Calif.) and analyzed using Flowjo software (Flowjo LLC, Ashland, Oreg.). […]
as §1

Primary CLL cells = Primary CLL cells with IL-4/CD40L, immunoblotting and annexin V/PI viability; assay type: cell-based, human
Protocol: Combination studies were performed with 10 or 100 nM venetoclax or 300 and 1000 nM S63846. Cell viability was assessed by annexin V/PI using flow cytometry and changes in protein expression by immunoblotting.

[4] = test system: JAK/STAT signaling (JAK1, JAK3, and TYK2 dependent); test: Whole blood IL-2, IL-4, IL-6 stimulated STAT phosphorylation after oral dosing; assay type: cell-based, human; conditions: for IC50: Homo sapiens
Protocol: For PD assessments, serial blood samples were drawn into lithium-heparin vacutainer tubes on Day 1 prior to dosing and again at 0.5, 1, 2, and 4 hours post-dose; on Day 8 at pre-dose and 2 hours post-dose; and Day 28 prior to dosing. Multiple assays were performed using the Day 1 and Day 8 PD samples. SYK-mediated BCR signaling in whole blood was measured prior to and post-dosing by stimulating 100 μL whole blood with 2 μL of anti-human IgD (IgG fraction) and 10 μg anti-human IgM for 10 minutes at 37° C., measuring the induction of pSYK Y525/526, pAKT S473, and pERK Y204. Similarly, whole blood was stimulated with 10 ng/mL of IL-2 (JAK1/3-dependent), IL-4 (JAK1/3-dependent), IL-6 (JAK1/TYK2-dependent) or GM-CSF (JAK2-dependent) for 20 minutes, measuring the induction of pSTAT5 Y694 in T-cells and NK cells, the induction of pSTAT6 Y641 in B cells, T-cells, NK cells, and monocytes, the induction of pSTAT3 Y705 in monocytes, B cells, and T-cells, and the induction of pSTAT5 Y694 in monocytes, respectively. The technical details for these assays were described in Coffey, G., et al., J Pharmacol Exp Ther, 2014. 351(3): p. 538-48. With blood samples from the CLL patients only, tumor cell surface expression of CD5, CD69, CD86, and CXCR4 pre-dose on days 1 and 28 were monitored. The recommended volume of antibodies were applied directly to 100 μL whole blood and incubated for 1 hour at room temperature. Afterwards, 4 mL of BD Lyse/Fix reagent was added to the blood to lyse red blood cells and fix the remaining leukocytes, followed by washing and FACS analysis. For each assay, data were collected using an LSR II instrument (BD Bioscience, San Jose, Calif.) and analyzed using Flowjo software (Flowjo LLC, Ashland, Oreg.). […]
The data were analyzed using the statistical language R and the accessory packages ggplot2 (Wickham, H., Elegant Graphics for Data Analysis. 2016: Springer-Verlag) and drc (Ritz, C., et al., Dose-Response Analysis Using R. PLoS One, 2015. 10(12): p. e0146021). For cell signaling assays, percent inhibition was determined by normalizing the receptor-induced phosphorylation events mean fluorescent intensity (MFI) to that of pre-dose receptor-induced MFI. The resulting relative activities were analyzed by nonlinear regression to a 3-parameter log-logistic function with an upper and lower limit set at 100 and 0%. […] Statistically significant differences between the healthy and patient serum marker at all cycles (Cycle 1 Day 1, Cycle 1 Day 8, and Cycle 2 Day 1) were detected by paired t test. […] The significance of the relation between maximum tumor response and change in a specific biomarker was evaluated using Spearman-Rank-correlation and p value.

[5] = test system: serum markers of inflammation; test: Serum protein markers of inflammation (multiplexed luminex); assay type: in vivo, human
Protocol: Whole blood for isolation of serum was collected prior to dosing on days 1, 8, and 28 to measure changes in protein markers of inflammation and immune function. Serum samples were snap-frozen on dry ice immediately following its separation and stored at −80° C. Samples were analyzed using a multiplexed luminex-based technology (Myriad RBM, Austin, Tex.), utilizing the companies ImmunoMap (40 analytes) and InflammationMap (45 analytes) platforms. Serum from healthy donors was used as control.
The data were analyzed using the statistical language R and the accessory packages ggplot2 (Wickham, H., Elegant Graphics for Data Analysis. 2016: Springer-Verlag) and drc (Ritz, C., et al., Dose-Response Analysis Using R. PLoS One, 2015. 10(12): p. e0146021). For cell signaling assays, percent inhibition was determined by normalizing the receptor-induced phosphorylation events mean fluorescent intensity (MFI) to that of pre-dose receptor-induced MFI. The resulting relative activities were analyzed by nonlinear regression to a 3-parameter log-logistic function with an upper and lower limit set at 100 and 0%. For the analysis of immune and inflammation markers in serum, the varying concentration units were converted to a common scale in pg/mL. Values below and in excess of the detection limit were replaced by half the detection limit and the upper limit, respectively. For missing values, the median value for each marker from the treatment group was imputed. Statistically significant differences between the healthy and patient serum marker at all cycles (Cycle 1 Day 1, Cycle 1 Day 8, and Cycle 2 Day 1) were detected by paired t test. Dimension reduction of expression of the biomarker table in healthy and patient serum was performed using linear discriminant analysis, as is implemented in R. For the biomarkers and tumor response, reduction in biomarker after treatment was normalized to that before treatment and correlated to the maximal tumor response (growth or reduction), representing the ratio of minimal tumor area following treatment and tumor area before treatment. The significance of the relation between maximum tumor response and change in a specific biomarker was evaluated using Spearman-Rank-correlation and p value.

SMILES: CCS(=O)(=O)N1CCN(c2ccc(Nc3ncc(C(N)=O)c(NC4CC4)n3)cc2)CC1 [cerdulatinib, 4-(cyclopropylamino)-2-((4-(4-(ethylsulfonyl)piperazin-1-yl)phenyl)amino)pyrimidine-5-carboxamide]
- AUC0−inf Ratio Fed/Fasted [1]: 1.16
- AUC0−inf Ratio PPI/Fasted [1]: 1.06
- Cmax Ratio Fed/Fasted [1]: 1.11
- Cmax Ratio PPI/Fasted [1]: 1.02
- T1/2 Mean ([1]; Fasted): 14.5 h
- Cmax ([1]; blood, Fed (high-fat diet)): 187 ng/mL
- AUC(0-inf) ([1]; blood, Fed (high-fat diet)): 4060 ng·h/mL
- half-life ([1]; blood, Fed (high-fat diet)): 13.6 h
- Tmax ([1]; blood, Fed (high-fat diet)): 6 h
- Cmax ([1]; in vivo, Fasted): 168 ng/mL
- AUC(0-inf) ([1]; in vivo, Fasted): 3460 ng·h/mL
- Cmax ([1]; in vivo, PPI (esomaprazole)): 170 ng/mL
- AUC(0-inf) ([1]; in vivo, PPI (esomaprazole)): 3680 ng·h/mL
- half-life ([1]; in vivo, PPI (esomaprazole)): 14.5 h
- Tmax ([1]; in vivo, PPI (esomaprazole)): 4 h
- inhibition of PMA-mediated B cell pERK Y204 [2]: No inhibition
- inhibition of GM-CSF induced JAK2-dependent STAT5 phosphorylation [3]: sparing JAK2
- IL-4/CD40L induced Mcl-1 and Bcl-XL expression (Primary CLL cells; 1 μM): significantly reduced
- inhibition of Mcl-1 and Bcl-XL compared to the other kinase inhibitors (Primary CLL cells; 1 μM): more robust inhibition
- synergy with venetoclax to induce apoptosis (Primary CLL cells; CLL cells): synergized
- Bim induction compared to idelalisib and ibrutinib (Primary CLL cells; equivalent drug concentrations): induced to greater levels
- IC50 ([4]; B-cell, B cells, patients, read-out: average IC50, IL-4 signaling (pSTAT6 Y641)): 1080 nM
- IC50 ([4]; B-cell, B cells, patients, read-out: average IC50, IL-6 signaling (pSTAT3 Y705)): 220 nM
- IC50 ([4]; po, depending on the cell lineage, whole blood, read-out: IC50, measures of JAK/STAT signaling): 190 to 1110 nM
- inhibition of IL-2, IL-4, and IL-6 signaling ([4]; concentration-dependent): potently inhibited
- serum MIP30, CRP, and VCAM1 ([5]; CLL/SLL and FL patients): significantly reduced
- MPO and CD40 serum levels ([5]; CLL/SLL patients, reduced at baseline): normalized
- serum BDNF ([5]; FL patients, reduced at baseline): normalized
- inhibition of serum inflammation markers ([5]; aggressive lymphomas (DLBCL/MCL)): Limited inhibition
- serum HCC4, IL18, and MIG ([5]; elevated at baseline, both patient groups): unaffected
